The values that follow come from paper PMC11377395 (Purinergic Signalling, 2024).

For this experiment, the target named is T1, A3 adenosine receptor (hA3AR) (Homo sapiens, UniProt P0DMS8).
T1 construct: gene ADORA3
T1 sequence (P0DMS8 1-318): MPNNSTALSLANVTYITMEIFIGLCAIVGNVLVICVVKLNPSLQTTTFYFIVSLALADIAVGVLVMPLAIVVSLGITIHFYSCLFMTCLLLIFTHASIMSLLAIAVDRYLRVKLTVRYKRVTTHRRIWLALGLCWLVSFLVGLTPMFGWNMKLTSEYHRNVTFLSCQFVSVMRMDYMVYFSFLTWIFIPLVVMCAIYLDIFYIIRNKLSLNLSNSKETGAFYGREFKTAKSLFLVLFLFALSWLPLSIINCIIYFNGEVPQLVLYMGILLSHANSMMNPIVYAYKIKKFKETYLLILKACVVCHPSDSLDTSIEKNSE
The experiment is described as follows: positive allosteric modulation of MRS5698 at […] in cAMP assay, CHO-hA3AR (also HL-60 cells). It counts as cell-based. For orientation: Cyclic AMP is a second messenger, typically raised through Gs and lowered through Gi signalling.

Turning to `Clc1ccc(Nc2nc3ccccc3c3[nH]c(C4CCCCC4)nc23)cc1Cl` [LUF6000, N-(3,4-Dichloro-phenyl)-2-cyclohexyl-1 H-imidazo[4,5-c]quinolin-4-amine], the “% Emax enhancement” value was found to be 19 % Emax enhancement.
